The values below come from PMC5522996, “Big conductance calcium‐activated potassium channel openers control spasticity without sedation” (British Journal of Pharmacology, 2017).

One data set concerns mouse vas deferens. Description: Electrically‐evoked contraction of the mouse vas deferens. The format is cell-based. How it is done:
Vasa deferentia were obtained from outbred MF‐1 mice and mounted vertically in a 4 mL organ bath at an initial tension of 0.5 g. The baths contained Mg^2+‐free Krebs solution (NaCl 118.2 mM, KCl 4.75 mM, KH2PO4 1.19 mM, NaHCO3 25.0 mM, glucose 11.0 mM and CaCl2·6H2O 2.54 mM), which was kept at 35–36°C and bubbled with 95% O2 and 5% CO2. […] Contractions were monitored by a computer using a data recording and analysis system as described previously (Ross et al., 2001). After placement in an organ bath, each tissue was subjected to a stimulation‐free period of 10 min and then stimulated for 10 min. Tissues were then subjected to alternate periods of stimulation (5 min) and rest (10 min) until consistent twitch amplitudes were obtained. This equilibration procedure was followed by a stimulation‐free period of 25 min. Tissues were then stimulated for 5 min after which the first agonist addition was made and stimulation continued until the end of the experiment.

Data set [1] has as its system CB1 receptor‐deficient ABH mice. Put plainly: Spasticity in CB1 receptor‐deficient mice. Format: in vivo, mouse. The note with it: 5 mg·kg^−1 i.v., 30 min (Figure 5A).
A further data set deals with mice. Put plainly: Visible sedation, behaviour and tolerability in mice. As to conditions: 1 mg·kg^−1 i.v.
The test system of data set [2] is ABH mice. Description: Temperature testing (hypothermia). The format is in vivo, mouse. The procedure:
These recordings were assessed 20 min following administration of compounds. Results are expressed as mean ± SEM, and were analysed by Student's t‐test or a one‐way ANOVA with Bonferroni post hoc test using Sigma/StatV3/Sigmpaplot V9 or V11 software (Pryce et al., 2014).

The test system of data set [3] is spastic ABH mice with EAE. Put plainly: Spasticity: resistance to hindlimb flexion against a strain gauge. As to conditions: 1 mg·kg^−1 i.v., racemate.
For data set [4], the system named is ABH mice. Description: Open‐field activity monitoring (hypomotility). Format: in vivo, mouse. As to conditions: 1 mg·kg^−1 i.v., 30 min after administration. How it is done:
Motor activity was assessed using 27.9 × 27.9 cm open field activity monitor chambers and computer software (Med Associates Inc, St. Albans, VT, USA.). This was typically performed in a darkened room. Recordings were initiated once the mouse entered the chamber and continued for 5 min. These chambers, allowing four simultaneous recordings of individual mice and were fitted with infrared beams that could detect movement in the X, Y planes. The total distance travelled (cm) was recorded. Results are expressed as mean ± SEM. These were analysed by Student's paired t‐test or a one‐way ANOVA with Bonferroni post hoc test, using SigmaStat V3/Sigmaplot V9 or V11 software (Systat Ltd Hounslow, UK. Al‐Izki et al., 2012).

As a reminder, the EC50 is the concentration needed to bring the measured effect to its halfway point.

On to `CC(CO)NC(=O)c1cccc(C=CCCCC(=O)N(C)C)c1` (centres unmarked) [VSN16, 3‐(6‐(dimethylamino)‐6‐oxohex‐1‐enyl)‐N‐(1‐hydroxypropan‐2‐yl)benzamide], for which the EC50 in the data set with mouse vas deferens (Mus musculus, read-out: EC50, inhibition of electrically‐evoked contraction) is approximately 10 nM. The “Antagonism of the action by SR141716A” value with mouse vas deferens (pre‐incubation of 31.6 nM SR141617A) is “antagonized”. Besides, the Inhibition of spasticity entry in data set [1] and in data set [3] was “significantly inhibit spasticity” throughout. In the data set on mice, the “Visible signs of sedation” value is “failed to induce visible signs of sedation”. In addition, the Hypothermia result in the data set with ABH mice [2] (1 mg·kg^−1 i.v., 20 min after administration) is listed as “did not induce”. Also, the “Cannabimimetic effects after injection directly into the CNS” value in the data set on ABH mice [2] (intracerebral (i.c.) route) is listed as “failed to induce cannabimimetic effects”. Moreover, the “Hypomotility in open field” value in the data set on ABH mice [4] was “did not induce”.
